Literature values as cited in patent publication US10590413B2, “Chiral control” (WAVE LIFE SCIENCES LTD., priority 2012, dated 2020).
Where two headings read alike, the source gives them in different places. [Rp] = phosphorothioate linkage, Rp; [5mC] = 5-methylcytosine

Tests used:
Mouse B Cells = conditions: mean and std. dev. of at least 3 experiments, compared to wells with no added ODN, cited from earlier work
[1] = system: Murine IL-6 production and B cell activation; conditions: cited from earlier work; for IL-6 (pg/ml) CH12.LX: CH12.LX cells; for SI (stimulation index, [3H] uridine uptake, fold increase from unstimulated control): cells stimulated with 20 μM CpG O-ODN; for SI (stimulation index, [3H] uridine uptake, fold increase from unstimulated control) / SI (stimulation index, [3H] uridine uptake): mean ± SD of triplicates; for SI (stimulation index, [3H] uridine uptake): fold increase from unstimulated control, 20 μM CpG O-ODN; for IgM: measured by ELISA, unstimulated culture 547 ± 82 ng/ml; for IL-6 (pg/ml) SPLENIC B CELL: splenic B cells
human PBMC = conditions: cited from earlier work
[2] = unstimulated control ≤10 pg/ml, US 6,239,116 Table 2
[3] = ODN 12 μg/ml, 4 hr, 10% autologous serum, level above wells with no ODN, ELISA
[4] = ODN 12 μg/ml, 24 hr, 10% autologous serum, level above wells with no ODN, ELISA

Substance	Stimulation Index, 3H Uridine (Mouse B Cells; US 6,239,116 Table 1)	Stimulation Index, IgM Production (Mouse B Cells; US 6,239,116 Table 1)	Stimulation Index, 3H Uridine (Mouse B Cells)	other results
1b (DNA GCTAGACGTTAGCGT; Z modified cytosine, further chemistry not given here) [Oligonucleotide 1b]	1.2 ± 0.1	1.8 ± 0.0	1.2 ± 0.1	
1c (DNA GCTAGACGTTAGCGT; chemistry not fully specified) [Oligonucleotide 1c]	10.3 ± 4.4	9.5 ± 1.8	10.3 ± 4.4	
1d (DNA GCATGACGTTGAGCT; DNA, backbone not given here; further chemistry not fully specified) [Oligonucleotide 1d]	13.0 ± 2.3	18.3 ± 7.5	13.0 ± 2.3	
2c (DNA ATCGACTCTCGAGCGTTCTC; chemistry not fully specified) [Oligonucleotide 2c]	3.1 ± 0.6	7.3 ± 1.4	3.1 ± 0.6	
2d (DNA ATCGACTCTCGAGCGTTCTC; DNA, [5mC] at 18, backbone not given here) [Oligonucleotide 2d]	7.4 ± 1.4	27.7 ± 5.4	7.4 ± 1.4	
3D (DNA GAGAACGCTGGACCTTCCAT; chemistry not fully specified) [Oligonucleotide 3D]	4.9 ± 0.5	19.9 ± 3.6	4.9 ± 0.5	
3Db (DNA GAGAACGCTCGACCTTCGAT; chemistry not fully specified) [Oligonucleotide 3Db]	10.1 ± 2.8	25.4 ± 0.8	10.1 ± 2.8	
3Dc (DNA GAGCAAGCTGGACCTTCCAT; chemistry not fully specified) [Oligonucleotide 3Dc]	1.0 ± 0.1	1.2 ± 0.5	1.0 ± 0.1	
3Df (DNA GAGAACGATGGACCTTCCAT; chemistry not fully specified) [Oligonucleotide 3Df]	1.6 ± 0.1	7.7 ± 0.4	1.6 ± 0.1	
3Dg (DNA GAGAACGCTCCAGCACTGAT; chemistry not fully specified) [Oligonucleotide 3Dg]	6.1 ± 1.5	18.6 ± 1.5	6.1 ± 1.5	
3Ma (DNA TCCATGCTGGTCCTGATGCT; chemistry not fully specified) [Oligonucleotide 3Ma]	0.9 ± 0.1	1.8 ± 0.5	0.9 ± 0.1	
3Mc (DNA TCCATGTCGGTCCTGATGCT; Z modified cytosine, further chemistry not given here) [Oligonucleotide 3Mc]	5.4 ± 1.5	8.5 ± 2.6	5.4 ± 1.5	
3Md (DNA TCCATGACGTTCCTGATGCT; chemistry not given here) [Oligonucleotide 3Md]	17.2 ± 9.4		17.2 ± 9.4	
3Me (DNA TCCATGTCGGTCCTGCTGAT; chemistry not given here) [Oligonucleotide 3Me]	3.6 ± 0.2	14.2 ± 5.2	3.6 ± 0.2	
4b (DNA TCAGCGCT; chemistry not fully specified) [Oligonucleotide 4b]	4.5 ± 0.2	9.6 ± 3.4	4.5 ± 0.2	
4c (DNA TCATCGAT; chemistry not given here) [Oligonucleotide 4c]	2.7 ± 1.0		2.7 ± 1.0	
4d (DNA TCTTCGAA; chemistry not fully specified) [Oligonucleotide 4d]	1.3 ± 0.2		1.3 ± 0.2	
4e (DNA CAACGTT; chemistry not fully specified) [Oligonucleotide 4e]	1.3 ± 0.2	1.1 ± 0.5	1.3 ± 0.2	
4f (DNA CCAACGTT; chemistry not fully specified) [Oligonucleotide 4f]	3.9 ± 1.4		3.9 ± 1.4	
4g (DNA AACGTTCT; chemistry not given here) [Oligonucleotide 4g]	1.4 ± 0.3		1.4 ± 0.3	
4h (DNA TCAACGTC; chemistry not fully specified) [Oligonucleotide 4h]	1.2 ± 0.2		1.2 ± 0.2	
1614 (DNA TCCATGACGGTCCTGATGCT; chemistry not given here) [Oligonucleotide 1614]				IL-6 (pg/ml) CH12.LX [1]: 1533 ± 321 pg/mL; IL-6 (pg/ml) CH12.LX [1, 2]: 1533 ± 321 pg/mL; SI (stimulation index, [3H] uridine uptake, fold increase from unstimulated control) [1]: 10.8 ± 0.6; SI (stimulation index, [3H] uridine uptake) [1]: 10.8 ± 0.6; IgM [1]: 7558 ± 414 ng/mL; IL-6 (pg/ml) SPLENIC B CELL [1]: 1812 ± 103 pg/mL; IL-6 (pg/ml) SPLENIC B CELL [1, 2]: 1812 ± 103 pg/mL; TNF-α (human PBMC; [3]): 31 pg/mL; GM-CSF (human PBMC; [4]): 50 pg/mL; IFN-γ (human PBMC; [4]): 0 pg/mL; IL-6 (human PBMC; [4]): 550 pg/mL; IL-12 (human PBMC; [4]): 31 pg/mL
1615 (DNA TCCATGGCGGTCCTGATGCT; chemistry not given here) [Oligonucleotide 1615]				IL-6 (pg/ml) CH12.LX [1]: 1201 ± 155 pg/mL; IL-6 (pg/ml) CH12.LX [1, 2]: 1201 ± 155 pg/mL; SI (stimulation index, [3H] uridine uptake, fold increase from unstimulated control) [1]: 3.7 ± 0.3; SI (stimulation index, [3H] uridine uptake) [1]: 3.7 ± 0.3; IgM [1]: 3212 ± 617 ng/mL; IL-6 (pg/ml) SPLENIC B CELL [1]: 850 ± 202 pg/mL; IL-6 (pg/ml) SPLENIC B CELL [1, 2]: 850 ± 202 pg/mL; TNF-α (human PBMC; [3]): 145 pg/mL; GM-CSF (human PBMC; [4]): 45 pg/mL; IFN-γ (human PBMC; [4]): 7.8 pg/mL; IL-6 (human PBMC; [4]): 600 pg/mL; IL-12 (human PBMC; [4]): 145 pg/mL; GM-CSF (human PBMC): 45; IFN-γ (human PBMC): 7.8; IL-6 (human PBMC): 600; IL-12 (human PBMC): 250; TNF-α (human PBMC): 145
All-(Rp)-d[GsCsCsTsCsAsGsTsCsTsGsCsTsTsCsGsCsAsCsC] (DNA GCCTCAGTCTGCTTCGCACC; DNA, all [Rp], methylation of C not given here) [Oligonucleotide 101]	2.9 ± 0.2	13.6 ± 2.0	2.9 ± 0.2	
